# Source: patent EP4631931A1, “HDAC INHIBITOR AND USE THEREOF” (Wigen Biomedicine Technology (Shanghai) Co., Ltd., priority 2022, dated 2024)
# Key:
# Jurkat cell = assay: Inhibition of Jurkat cell proliferation (CTG, intracellular ATP); assay type: cell-based; conditions: Homo sapiens, 72 h, compared to DMSO group, read-out: Inhibitory activity against Jurkat cell proliferation (IC50)
# Method: Jurkat or 293T cells were seeded into a 96-well plate at 3000 cells/well. After overnight adherence culture, the serially diluted compound in DMSO was added. After 72 h, the intracellular ATP level was determined by CTG. The IC50 for the inhibition of cell proliferation by the compounds was calculated compared to the DMSO group. Table 8. Inhibitory activity of compounds of the present disclosure against Jurkat/293T cell proliferation (IC50, µM)
# HeLa cells = assay: Intracellular acetyl lysine / H3K 27 acetyl lysine level by ELISA; assay type: cell-based; conditions: 24 h of treatment
# Method: HeLa cells were seeded into a 96-well plate at 20000 cells/well. After overnight adherence culture, the serially diluted compound was added. After 24 h of treatment, intracellular levels of acetyl lysine and H3K 27 acetyl lysine were quantified by ELISA. Table 9. Effect of compound of the present disclosure on levels of acetyl lysine and H3K 27 acetyl lysine
# [1] = Metabolite identification in liver microsomes and hepatocytes from various species; assay type: in vitro ADME; conditions: 10 µM compound, 1.0 mg/mL liver microsomes, 37 °C, 120 min; mouse, rat, dog, monkey, human
# Method: After the 10 µM compound was separately incubated with 1.0 mg/mL liver microsomes or hepatocytes (from 5 species: mouse, rat, dog, monkey, and human), and an NADPH regeneration system at 37 °C for 120 min, a stop solution was added to terminate the reaction, and the incubated samples were removed from the water bath. After the reaction was terminated, the samples were vortexed and then centrifuged at 4 °C and 3260× g for 15 min. After centrifugation, all the supernatants were transferred to a 96-well plate for direct use in LC-MS analysis, or subjected to dilution or concentration and reconstitution prior to injection. An LC-UV-HRMSn (n = 1-2) analytical method was established on LC-UV-HRMSn, and data acquisition was performed using SCIEX OS software. The parent drug and the metabolites could be analyzed by mass spectrometry with different scanning modes (MS/MS or IDA) and ultraviolet full-wavelength scanning (λ = 190-500 nm). By comparing the ultraviolet and mass spectra of the post-incubation samples with those of blank samples from the same species, potential metabolites were identified. The possible structures of the metabolites were inferred by comparative analysis of the collision-induced dissociation (CID) fragments of the test compounds and their metabolites. The metabolites and their relative abundances were summarized in a table for interspecies comparison.
# [2] = Pharmacokinetic experiment in mice; assay type: in vivo, CD-1 female mice; conditions: female, CD-1, mouse, plasma; for Vd: read-out: Vdss
# Method: CD-1 female mice aged 7 to 10 weeks were intravenously administered and orally administered at doses of 1 mg/kg and 10 mg/kg, respectively. The mice were fasted for at least 12 h before the administration and given food 4 h after the administration, and they were given ad libitum access to water during the experiment.
# (§1) On the day of the experiment, animals in the intravenous group were given the corresponding compound by single injection via the tail vein at an administration volume of 10 mL/kg; and animals in the oral group were given the corresponding compound by single intragastric injection at an administration volume of 10 mL/kg. The animals were weighed before administration, and the administration volume was calculated according to the body weight. The sample collection time points were 0.083 h, 0.167 h, 0.5 h, 1 h, 2 h, 4 h, 8 h, and 24 h. About 200 µL of whole blood was collected through the orbital venous plexus at each time point and used to prepare plasma for concentration determination by high-performance liquid chromatography-tandem mass spectrometry (LC-MS/MS). The plasma concentrations were processed using a non-compartmental model of Winnolin pharmacokinetic software, and the pharmacokinetic parameters were calculated using a linear-log trapezoidal method. Table 13. Results of in vivo pharmacokinetic evaluation of compounds of the present disclosure
# [3] = Pharmacokinetic experiment in rats; assay type: in vivo; conditions: female, rat, plasma
# Method: Healthy female rats aged 6 to 8 weeks were intravenously administered and orally administered at doses of 1 mg/kg and 10 mg/kg. The rats were fasted overnight before the administration.
# as §1, with “The” for “The animals were weighed before administration, and the administration volume was calculated according to the body weight. The”, “neck” for “orbital venous plexus”, “14.” for “13.”, “compounds” for “compounds of the present disclosure”
# [4] = Injection (1 mg/kg), intravenous
IC50 (Jurkat cell) [µM],"AUC(0-t) [2, 4] [ng·h/mL]","clearance [2, 4] [mL/min/kg]","half-life [2, 4] [h]","Vd [2, 4] [L/kg]",AUC(0-t) ([2]; Oral administration (10 mg/kg)) [ng·h/mL],Cmax ([2]; Oral administration (10 mg/kg)) [ng/mL],Tmax ([2]; Oral administration (10 mg/kg)) [h],bioavailability ([2]; Oral administration (10 mg/kg)) [%],half-life ([2]; Oral administration (10 mg/kg)) [h],Structure (SMILES),Acetyl lysine Maximum (%) (HeLa cells),Acetyl lysine Minimum effective concentration (HeLa cells) [nM],H3K 27 Acetyl lysine Maximum (%) (HeLa cells),H3K 27 Acetyl lysine Minimum effective concentration (HeLa cells) [nM],other results
0.59,453,36.8,1.28,1.13,2360,1330,0.17,52,3.13,"[2H]c1cc(C(=O)Nc2ccc(F)cc2N)ccc1CNC(=O)/C=C/c1cccnc1 [Compound 5, (E)-N-(2-amino-4-fluorophenyl)-4-((3-(pyridin-3-yl)acrylamido)methyl)-3-d benzamide]",350,16,420,80,"metabolic pathways and stability in liver microsomes from all the species [1]: simple metabolic pathways and good stability in liver microsomes from all the species; AUC(0-t) [3, 4]: 1260 ng·h/mL; clearance [3, 4]: 12.9 mL/min/kg; half-life [3, 4]: 6.54 h; Vd ([3]; Injection (1 mg/kg), intravenous, read-out: Vdss): 2.42 L/kg; AUC(0-t) ([3]; Oral administration (10 mg/kg)): 5150 ng·h/mL; Cmax ([3]; Oral administration (10 mg/kg)): 3420 ng/mL; Tmax ([3]; Oral administration (10 mg/kg)): 9.6 min; bioavailability ([3]; Oral administration (10 mg/kg)): 40.1%; half-life ([3]; Oral administration (10 mg/kg)): 4.01 h"
1.62,539,33.9,2.03,1.55,2490,3750,0.17,46.1,3.51,"Nc1cc(F)ccc1NC(=O)c1ccc(CNC(=O)/C=C/c2cccnc2)cc1 [Chidamide, reference compound]",420,80,380,80,
